Measured values reported in US20240123080A1, “CYTOTOXIC COMPOUNDS AND CONJUGATES THEREOF” (Seagen Inc., priority 2022, published 2024).
*1 amine or outer side, *2 acyl side, *3 side chain or, on linkers, in order; H or OH if unused. Where a SMILES comes first, the peptide text is derived from it. [ ]: non-standard residue; d: D form. The star is where a group is joined. ξ: configuration not given here. Dolaproine = CO[C@@H]([C@@H]1CCCN1)[C@@H](C)C(=O)O; Hexanoyl(6-maleimido) = O=C1C=CC(=O)N1CCCCCC(=O)*; Propanoyl(3-maleimido) = O=C1C=CC(=O)N1CCC(=O)*; Dil = CC[C@H](C)[C@H](NC)[C@@H](CC(=O)O)OC; PABC = O=C(OCc1ccc(N[*:1])cc1)[*:2]; Tyrosinol = OC[C@H](Cc1ccc(O)cc1)N*; Val(3-OH) = CC(C)(O)[C@H](N)C(=O)O; Doe = c1ccc(C[C@H](N*)c2nccs2)cc1; X1 = C[C@@H](N*)[C@@H](O)c1ccccc1; NMeT = CN[C@H](C(=O)O)[C@@H](C)O; Cit = NC(=O)NCCC[C@H](N)C(=O)O; Phe(ol) = N[C@H](CO)Cc1ccccc1; NHPhenethyl = c1ccc(CCN*)cc1; X3 = CN1C(=O)OC[C@@H]1C(=O)*; NMeS = CN[C@@H](CO)C(=O)O; dNMeS = CN[C@H](CO)C(=O)O; ξαMeS = CC(N)(CO)C(=O)O

What was measured:
DEL ALCL = test: In vitro cytotoxicity, cell proliferation assay (CellTiter-Glo, 96 h); format: cell-based; details: auristatin free drug
Procedure: (§1) The cytotoxicity of free drugs and drug conjugates were measured by a cell proliferation assay employing the protocol described in Promega Corp. Technical Bulletin TB288; and Mendoza et al., 2002, Cancer Res. 62:5485-5488), the methods of which are specifically incorporated by reference herein. Briefly, an aliquot of 40 μl of cell culture containing about 400 cells in medium is deposited in each well of a 384-well, opaque-walled plate. A 10 μL aliquot of free drug or drug conjugate is added to the experimental wells and incubated for 96 h and are then equilibrated to room temperature for approximately 30 minutes whereupon a volume of CellTiter-Glo™ reagent equal to the volume of cell culture medium present in each well is added. The contents are mixed for 2 minutes on an orbital shaker to induce cell lysis and the plate is incubated at room temperature for 10 minutes to stabilize the luminescence signal for recordation.

L540cy HL = test: as above; format: cell-based; details: auristatin free drug
Procedure: as §1

Karpas299 NHL = test: as above; format: cell-based; details: Homo sapiens, KARPAS-299, auristatin free drug
Procedure: as §1

[1] = LogD, miniaturized 1-octanol/pH 7.4 buffer shake flask method, LC/MS/MS; format: physicochemical
Procedure: The LogD (distribution coefficient) of the compounds was measured using a miniaturized 1-octanol/pH 7.4 buffer shake flask method followed by LC/MS/MS analysis. Values were determined by measuring the compound partitioned in the organic and buffered layers.

Sprague Dawley rats = test: In vivo rat safety study of non-binding (h00) ADCs, hematology and clinical chemistry; details: ADC of the Drug-Linker
Procedure: In vivo rat safety studies were done in naive female Sprague Dawley rats (Envigo). Studies had 3 animals/group/timepoint and included a vehicle control group (1×PBS pH 7.4). Animals were administered a single dose of 15 or 80 mg/kg of an h00 ADC (DAR=4) via intravenous injection. Blood was drawn at days 5 and day 8. Blood was sampled under isoflurane anesthesia via the jugular vein for periodic hematology analysis on the Sysmex XT-2000iV. At necropsy, blood was collected from the caudal vena cava for hematology and clinical chemistry panels. Clinical chemistry was analyzed on a Beckman Coulter AU680.

Structure (SMILES) | IC50 (DEL ALCL) [nM] | IC50 (L540cy HL) [nM] | IC50 (Karpas299 NHL) [nM] | logD [1] | Tolerated at 80 mg/kg in rats (Sprague Dawley rats)
CC[C@H](C)[C@@H]([C@@H](CC(=O)N1CCC[C@H]1[C@H](OC)[C@@H](C)C(=O)N[C@H](CO)Cc1ccccc1)OC)N(C)C(=O)[C@@H](NC(=O)[C@H](CO)NC)C(C)C [Example 12] (H-[NMeS]V[Dil][Dolaproine][Phe(ol)]) | 1.1 | 4.8 | 0.3 | 1.2 | –
CC[C@H](C)[C@@H]([C@@H](CC(=O)N1CCC[C@H]1[C@H](OC)[C@@H](C)C(=O)N[C@H](CO)Cc1ccccc1)OC)N(C)C(=O)[C@@H](NC(=O)[C@@H](NC)[C@@H](C)O)C(C)C [Example 13] (H-[NMeT]V[Dil][Dolaproine][Phe(ol)]) | 1.2 | 5 | 2.2 | 1.4 | –
CC[C@H](C)[C@@H]([C@@H](CC(=O)N1CCC[C@H]1[C@H](OC)[C@@H](C)C(=O)N[C@H](CO)Cc1ccccc1)OC)N(C)C(=O)[C@@H](NC(=O)[C@@H](CO)NC)C(C)C [Example 14] (H-[dNMeS]V[Dil][Dolaproine][Phe(ol)]) | 3.5 | 10 | 7.4 | 1.1 | –
CC[C@H](C)[C@@H]([C@@H](CC(=O)N1CCC[C@H]1[C@H](OC)[C@@H](C)C(=O)N[C@H](C)[C@@H](O)c1ccccc1)OC)N(C)C(=O)[C@@H](NC(=O)[C@H](CO)NC)C(C)C [Example 17] (H-[NMeS]V[Dil][Dolaproine]-X1) | 2.5 | 16.2 | 7.6 | 1.1 | –
CC[C@H](C)[C@@H]([C@@H](CC(=O)N1CCC[C@H]1[C@H](OC)[C@@H](C)C(=O)NCCc1ccccc1)OC)N(C)C(=O)[C@@H](NC(=O)[C@H](CO)NC)C(C)C [Example 18] (H-[NMeS]V[Dil][Dolaproine]-NHPhenethyl) | 0.6 | 16 | 2.3 | 1.9 | –
CC[C@H](C)[C@@H]([C@@H](CC(=O)N1CCC[C@H]1[C@H](OC)[C@@H](C)C(=O)N[C@@H](Cc1ccccc1)c1nccs1)OC)N(C)C(=O)[C@@H](NC(=O)[C@H](CO)NC)C(C)C [Example 19] (H-[NMeS]V[Dil][Dolaproine]-Doe) | 0.4 | 2.5 | 0.5 | 2.4 | –
CC[C@H](C)[C@@H]([C@@H](CC(=O)N1CCC[C@H]1[C@H](OC)[C@@H](C)C(=O)N[C@@H](Cc1ccccc1)c1nccs1)OC)N(C)C(=O)[C@@H](NC(=O)[C@H](CO)NC)[C@@H](C)CC [Example 20] (H-[NMeS]I[Dil][Dolaproine]-Doe) | 0.3 | 4.7 | 1 | 1.9 | –
CC[C@H](C)[C@@H]([C@@H](CC(=O)N1CCC[C@H]1[C@H](OC)[C@@H](C)C(=O)N[C@H](C)[C@@H](O)c1ccccc1)OC)N(C)C(=O)[C@@H](NC(=O)[C@@H](N)C(C)(C)O)C(C)C [Example 28] (H-[Val(3-OH)]V[Dil][Dolaproine]-X1) | 7.8 | 28 | 9.4 | 2 | –
CC[C@H](C)[C@@H]([C@@H](CC(=O)N1CCC[C@H]1[C@H](OC)[C@@H](C)C(=O)N[C@H](CO)Cc1ccccc1)OC)N(C)C(=O)[C@@H](NC(=O)[C@@H](N)C(C)(C)O)C(C)C [Example 29] (H-[Val(3-OH)]V[Dil][Dolaproine][Phe(ol)]) | 12.7 | 58 | 13.7 | 2 | –
CC[C@H](C)[C@@H]([C@@H](CC(=O)N1CCC[C@H]1[C@H](OC)[C@@H](C)C(=O)N[C@H](CO)Cc1ccc(O)cc1)OC)N(C)C(=O)[C@@H](NC(=O)[C@@H](N)C(C)(C)O)C(C)C [Example 30] (H-[Val(3-OH)]V[Dil][Dolaproine]-Tyrosinol) | 396 | > 1000 | 481 | 1.2 | –
CC[C@H](C)[C@@H]([C@@H](CC(=O)N1CCC[C@H]1[C@H](OC)[C@@H](C)C(=O)N[C@@H](Cc1ccccc1)c1nccs1)OC)N(C)C(=O)[C@@H](NC(=O)[C@@H](N)C(C)(C)O)C(C)C [Example 31] (H-[Val(3-OH)]V[Dil][Dolaproine]-Doe) | 2.1 | 4.7 | 1.7 | 3.4 | –
CC[C@H](C)[C@@H]([C@@H](CC(=O)N1CCC[C@H]1[C@H](OC)[C@@H](C)C(=O)N[C@H](C)[C@@H](O)c1ccccc1)OC)N(C)C(=O)[C@@H](NC(=O)C[C@@H](N)CO)C(C)C [Example 32] | 64 | 920 | 56 | 0.3 | –
CC[C@H](C)[C@@H]([C@@H](CC(=O)N1CCC[C@H]1[C@H](OC)[C@@H](C)C(=O)N[C@H](C)[C@@H](O)c1ccccc1)OC)N(C)C(=O)[C@@H](NC(=O)C(C)(N)CO)C(C)C (stereo partly drawn) [Example 33] (H-[ξαMeS]V[Dil][Dolaproine]-X1) | 1.8 | 6.4 | 1.7 | 3.2 | –
CC[C@H](C)[C@@H]([C@@H](CC(=O)N1CCC[C@H]1[C@H](OC)[C@@H](C)C(=O)N[C@H](CO)Cc1ccccc1)OC)N(C)C(=O)[C@@H](NC(=O)[C@H]1COC(=O)N1C)C(C)C [Example 45] (X3-V[Dil][Dolaproine][Phe(ol)]) | 8.5 | 272 | 40.8 | 1.5 | –
CC[C@H](C)[C@@H]([C@@H](CC(=O)N1CCC[C@H]1[C@H](OC)[C@@H](C)C(=O)NC(CCO)Cc1ccccc1)OC)N(C)C(=O)[C@@H](NC(=O)[C@H](CO)N(C)C)C(C)C (stereo partly drawn) [Example 54] | 7 | 274 | 6 | – | –
CC[C@H](C)[C@@H]([C@@H](CC(=O)N1CCC[C@H]1[C@H](OC)[C@@H](C)C(=O)NC(Cc1ccccc1)c1cccs1)OC)N(C)C(=O)[C@@H](NC(=O)[C@H](CO)N(C)C)C(C)C (stereo partly drawn) [Example 55] | 0.8 | 16 | 1 | – | –
CC[C@H](C)[C@@H]([C@@H](CC(=O)N1CCC[C@H]1[C@H](OC)[C@@H](C)C(=O)NC(Cc1ccccc1)c1ncco1)OC)N(C)C(=O)[C@@H](NC(=O)[C@H](CO)N(C)C)C(C)C (stereo partly drawn) [Example 56] | 1 | 24 | 0.9 | – | –
CC[C@H](C)[C@@H]([C@@H](CC(=O)N1CCC[C@H]1[C@H](OC)[C@@H](C)C(=O)N[C@@H](Cc1ccccc1)[C@@H](O)CO)OC)N(C)C(=O)[C@@H](NC(=O)[C@H](CO)N(C)C)C(C)C [Example 57] | 4 | 49 | 3 | – | –
CC[C@H](C)[C@@H]([C@@H](CC(=O)N1CCC[C@H]1[C@H](OC)[C@@H](C)C(=O)N[C@H](CO)Cc1ccccc1)OC)N(C)C(=O)[C@@H](NC(=O)[C@H](CO)N(C)C(=O)OCc1ccc(NC(=O)[C@H](CCCNC(N)=O)NC(=O)[C@@H](NC(=O)CCCCCN2C(=O)C=CC2=O)C(C)C)cc1)C(C)C [Example 61] ({Hexanoyl(6-maleimido)}-V[Cit][PABC][NMeS]V[Dil][Dolaproine][Phe(ol)]) | – | – | – | – | Yes
CC[C@H](C)[C@@H]([C@@H](CC(=O)N1CCC[C@H]1[C@H](OC)[C@@H](C)C(=O)NCCc1ccccc1)OC)N(C)C(=O)[C@@H](NC(=O)[C@H](CO)N(C)C(=O)OCc1ccc(NC(=O)[C@H](CCC(=O)O)NC(=O)[C@H](C)NC(=O)[C@@H](CC(C)C)NC(=O)CCN2C(=O)C=CC2=O)cc1)C(C)C [Example 78] ({Propanoyl(3-maleimido)}-[dL]AE[PABC][NMeS]V[Dil][Dolaproine]-NHPhenethyl) | – | – | – | – | Yes
CC[C@H](C)[C@@H]([C@@H](CC(=O)N1CCC[C@H]1[C@H](OC)[C@@H](C)C(=O)N[C@@H](Cc1ccccc1)c1nccs1)OC)N(C)C(=O)[C@@H](NC(=O)[C@H](CO)N(C)C(=O)OCc1ccc(NC(=O)[C@H](CCC(=O)O)NC(=O)[C@H](C)NC(=O)[C@@H](CC(C)C)NC(=O)CCN2C(=O)C=CC2=O)cc1)C(C)C [Example 79] ({Propanoyl(3-maleimido)}-[dL]AE[PABC][NMeS]V[Dil][Dolaproine]-Doe) | – | – | – | – | No
CC[C@H](C)[C@@H]([C@@H](CC(=O)N1CCC[C@H]1[C@H](OC)[C@@H](C)C(=O)N[C@@H](Cc1ccccc1)c1nccs1)OC)N(C)C(=O)[C@@H](NC(=O)[C@H](CO)N(C)C(=O)OCc1ccc(NC(=O)[C@H](CCC(=O)O)NC(=O)[C@H](C)NC(=O)[C@@H](CC(C)C)NC(=O)CCN2C(=O)C=CC2=O)cc1)[C@@H](C)CC [Example 80] ({Propanoyl(3-maleimido)}-[dL]AE[PABC][NMeS]I[Dil][Dolaproine]-Doe) | – | – | – | – | Yes
